Assay results published in US12168003B2, “Selective inhibition of T follicular helper cells for treatment of autoimmune disorders” (priority 2019, dated 2024).

System: EAE mice
Experiment: Active EAE (MOG33-55/CFA), 4EGI-1 from initiation of EAE
Type: in vivo, mouse
Description: Ten-week old female mice purchased from Jackson Laboratory were subcutaneously injected at two sites with 100 μL […] emulsified in CFA (Hooke Labs) per flank. On the same day, 6 hours later, and on day 2, mice were injected with 100 ng of pertussis toxin in 200 μL i.p. Mice were monitored daily and scored on a scale of 0-5 where 0, no disease; 1, tail paralysis; 2; hind limb paresis; 3, complete hind limb paralysis; 4, front limb weakness and hind limb paralysis, and 5, moribund state. When stated, mice were either administered 25 mg/kg 4EGI-1 or vehicle i.p. from d 0 to 21 following EAE induction or 75 mg/kg 4EGI-1 or vehicle i.p. from day 12 to 21 following EAE induction and randomization. LFB-H images imported into FIJI underwent color deconvolution to isolate myelin staining. A binary image was generated and % myelination of the spinal cord was calculated. Spinal cords from mice not subjected to EAE were set to 100% and all other samples from the same group were normalized. H&E images imported into FIJI underwent color deconvolution to isolate hematoxylin staining. A binary image was generated and % infiltration of the spinal cord of was calculated. Five-micron sections of paraffin embedded tissue were stained with Akoya Biosciences® Opal™ multiplex automation kit reagents unless stated otherwise. Automated staining was performed on Leica BondRX® autostainer. The protocol was performed according to manufacturers' instructions with primary antibodies to CD19 (Cell Signaling Technology, cat #90176) and CD4 (Cell Signaling Technology, cat #25229). Briefly, all slides underwent sequential epitope retrieval with Leica Biosystems epitope retrieval 2 solution (EDTA based, pH9, Cat. AR9640), primary and secondary antibody incubation and tyramide signal amplification (TSA) with Opal® fluorophores Op690 and Op520. Primary and secondary antibodies were removed during epitope retrieval steps while fluorophores remain covalently attached to the epitope. Semi-automated image acquisition was performed on a Vectra® Polaris multispectral imaging system. After whole slide scanning at 10× the tissue was manually outlined to select fields for multispectral imaging at 20×. Phenochart® software from Akoya Biosciences was used for spectral unmixing of the whole slide scans. Scans were imported into QuPath and representative images were exported into FIJI.

## O=C(O)C(Cc1ccccc1[N+](=O)[O-])=NNc1nc(-c2ccc(Cl)c(Cl)c2)cs1 (mixture of isomers) [4EGI-1]
25 mg/kg daily i.p., day 0 to 21
  clinical EAE severity (daily clinical score): significantly reduced
25 mg/kg daily i.p., from EAE induction
  disease-associated weight loss: significantly reduced
25 mg/kg daily, EAE mice
  ELFs (ectopic lymphoid follicles) in spinal cord: substantially reduced
25 mg/kg daily, EAE mice, immunofluorescence
  numbers of CD4+ T and B cells in the spinal cords: strongly reduced
25 mg/kg daily, Luxol fast blue
  level of myelination of the spinal cord (normal = 100%): ~98%
25 mg/kg daily, day 21 of EAE
  CD4+ T cells producing IFN-γ in spinal cord and brain: almost abolished
  CD4+ T cells producing IL-17A in spinal cord and brain: almost abolished
  reduction of CD4+ T cells in the brain: 3 fold
  reduction of CD4+ T cells in the spinal cord: 3 fold
  reduction of TFH cells in the spleen: 3 fold
